Measured values taken from PMC12652692, “Synthesis and In Vitro Anticancer Evaluation of Novel Phosphonium Derivatives of Chrysin” (International Journal of Molecular Sciences, 2025).

Key:
Assay in all cases: NCI60 one-dose screen
SR = assay type: cell-based, human; details: 10 μM
Description: (§1) The screening results are presented in the Supplementary Materials (Table S1), where the cytotoxicity was determined for the 10 µM concentration. […] The negative numbers indicate significant decreases in the cell number. […] Compared to the reference chrysin (2), all phosphonium hybrids (3a–h) had significant antiproliferative activities. […] At the same time, it should be noted that more than 60% average reduction was also obtained in the case of the other examined conjugates (3a–h).
(§2) A detailed description of the NCI screening procedures, including the one-dose and five-dose tests, can be found in the Supplementary Materials, on the website of NCI [39], and in our previous work.
(§3) A detailed description of the NCI screening procedures can also be found on the website of NCI [39], and in our […]
(§4) All candidates were examined at first at a single high dose (10 μM) in the full NCI60 cell panel. The value reported for the one-dose test is growth relative to the no-drug control and relative to the time zero number of cells. This made possible the disclosure of both growth inhibition (numbers between 0 and 100) and lethality (numbers less than 0). For example, a value of 100 means no growth inhibition. A value of 20 would mean 80% growth inhibition. A value of 0 means no net growth over the course of the analysis. A value of −20 would mean 20% lethality. A value of −100 means all cells are dead. […]
(§5) concentration levels. The human tumor cell lines of the cancer screening panel were grown in RPMI 1640 medium containing 5% fetal bovine serum and 2 mM l-glutamine. Characteristically, cells were injected in 96-well microtiter plates in 0.1 mL at plating densities ranging from 5000 to 40,000 cells/well, depending on the doubling time of individual cell lines. After cell inoculation, the microtiter plates were incubated at 37 °C, 5% carbon dioxide, 95% air, and 100% relative humidity for 24 hours before the addition of tested compounds. After 24 hours, 2 plates of each cell line were fixed in situ with Cl3COOH (TCA), to represent a measurement of the cell population for each cell line at the time of drug addition (tz). Tested compounds were solubilized in DMSO at 400-fold the desired final maximum test concentration and stored frozen before application. In the course of the drug addition, an aliquot of frozen concentrate was thawed and diluted to twice the desired final maximum test concentration with a complete medium containing 50 μg mL−1 gentamicin. Additional four, 10-fold or ½ log serial dilutions were produced to furnish a total of five drug concentrations plus control. Aliquots of 0.1 mL of these different drug dilutions were added to the appropriate microtiter wells already containing 0.1 mL of medium, resulting in the required final drug concentrations.
(§6) Following drug addition, the plates were incubated at 37 °C, 5% carbon dioxide, 95% air, and 100% relative humidity for an additional 48 hours. For adherent cells, the test was finished by the addition of cold Cl3COOH. Cells were fixed in situ by the addition of 50 μL of cold 50% (w/v) Cl3COOH, and incubated at 4 °C for 1 hour. The supernatant was discarded, and the plates were washed with H2O (5×) and dried in air. Sulforhodamine B (SRB) solution (0.1 mL) at 0.4% (w/v) in 1% CH3COOH was added to each well, and plates were incubated at RT for 10 min. After staining, the unbound dye was removed by washing five times with 1% CH3COOH, and the plates were dried in the air. The bound stain is afterward solubilized with a 10 mM trizma base, and the absorbance is read on an automated plate reader at λ = 515 nm. Utilizing the seven absorbance measurements [time zero (tz), control growth (c), and test growth in the presence of the drug at the five concentration levels (ti)], the percentage growth was determined at each of the drug concentration levels. Growth inhibition (%) was calculated as:
(§7) [(ti − tz)/(c − tz)] × 100, for concentrations where ti ≥ tz (1) […]

UACC-62 = assay type: cell-based, human; details: UACC-62, 10 μM
Description: as §1, §2, §3, §4, §5, §6, §7

PC-3 = assay type: cell-based, human; details: PC-3, 10 μM
Description: as §1, §2, §3, §4, §5, §6, §7

T-47D = assay type: cell-based, human; details: 10 μM
Description: as §1, §2, §3, §4, §5, §6, §7

HCC-2998 = assay type: cell-based; details: Homo sapiens; HCC-2998, 10 μM; read-out: Growth percent
Description: as §1, §2, §3, §4, §5, §6, §7

RPMI-8226 = assay type: cell-based; details: Homo sapiens; RPMI-8226, 10 μM; read-out: Growth percent
Description: as §1, §2, §3, §4, §5, §6, §7

SF-295 = assay type: cell-based; details: Homo sapiens; SF-295, 10 μM; read-out: Growth percent
Description: as §1, §2, §3, §4, §5, §6, §7

SF-539 = assay type: cell-based; details: Homo sapiens; SF-539, 10 μM; read-out: Growth percent
Description: as §1, §2, §3, §4, §5, §6, §7

ACHN = assay type: cell-based; details: Homo sapiens, read-out: Growth percent
Description: as §1, §2, §3, §4, §5, §6, §7

NCI-H23 = assay type: cell-based; details: Homo sapiens; NCI-H23, 10 μM; read-out: Growth percent
Description: as §1, §2, §3, §4, §5, §6, §7

OVCAR-4 = assay type: cell-based; details: Homo sapiens; OVCAR-4, 10 μM; read-out: Growth percent
Description: as §1, §2, §3, §4, §5, §6, §7

SW-620 = assay type: cell-based; details: Homo sapiens; SW-620, 10 μM; read-out: Growth percent
Description: as §1, §2, §3, §4, §5, §6, §7

SK-MEL-5 = assay type: cell-based; details: Homo sapiens; SK-MEL-5, 10 μM; read-out: Growth percent
Description: as §1, §2, §3, §4, §5, §6, §7

CAKI-1 = assay type: cell-based; details: Homo sapiens; CAKI-1, 10 μM; read-out: Growth percent
Description: as §1, §2, §3, §4, §5, §6, §7

SNB-19 = assay type: cell-based; details: Homo sapiens; SNB-19, 10 μM; read-out: Growth percent
Description: as §1, §2, §3, §4, §5, §6, §7

HS 578T = assay type: cell-based; details: Homo sapiens, read-out: Growth percent
Description: as §1, §2, §3, §4, §5, §6, §7

OVCAR-8 = assay type: cell-based; details: Homo sapiens; OVCAR-8, 10 μM; read-out: Growth percent
Description: as §1, §2, §3, §4, §5, §6, §7

NCI-H460 = assay type: cell-based; details: Homo sapiens; NCI-H460, 10 μM; read-out: Growth percent
Description: as §1, §2, §3, §4, §5, §6, §7

SNB-75 = assay type: cell-based; details: Homo sapiens; SNB-75, 10 μM; read-out: Growth percent
Description: as §1, §2, §3, §4, §5, §6, §7

RXF 393 = assay type: cell-based; details: Homo sapiens; RXF 393, 10 μM; read-out: Growth percent
Description: as §1, §2, §3, §4, §5, §6, §7

HOP-92 = assay type: cell-based, human; details: HOP-92, 10 μM
Description: as §1, §2, §3, §4, §5, §6, §7

Structure (SMILES) | Growth percent (SR) | Growth percent (UACC-62) | Growth percent (PC-3) | Growth percent (T-47D) | activity at 10 µM (HCC-2998) | activity at 10 µM (RPMI-8226) | activity at 10 µM (SF-295) | activity at 10 µM (SF-539) | activity at 10 µM (ACHN) | activity at 10 µM (NCI-H23) | activity at 10 µM (OVCAR-4) | activity at 10 µM (SW-620) | activity at 10 µM (SK-MEL-5) | activity at 10 µM (CAKI-1) | activity at 10 µM (SNB-19) | activity at 10 µM (HS 578T) | activity at 10 µM (OVCAR-8) | activity at 10 µM (NCI-H460) | activity at 10 µM (SNB-75) | activity at 10 µM (RXF 393) | further results
O=c1cc(-c2ccccc2)oc2cc(OCCCC[P+](c3ccccc3)(c3ccccc3)c3ccccc3)cc(O)c12 [3a] | −39.83% | −59.51% | −87.34% | −62.52% | -93.1% | -66.7% | -96% | -95.7% | -100% | -93% | -69.1% | -81.7% | -98.4% | -97.1% | -44.5% | -35.2% | -61.1% | -75.8% | -80.7% | – | –
Cc1ccc([P+](CCCCOc2cc(O)c3c(=O)cc(-c4ccccc4)oc3c2)(c2ccc(C)cc2)c2ccc(C)cc2)cc1 [3b] | −36.14% | −88.32% | – | −52.52% | -88.7% | -55.8% | -91.3% | -80.5% | -92.8% | -90.9% | -73.1% | -68.5% | -96.5% | -90.4% | -96.1% | -52.2% | -30.1% | -47.8% | -78.4% | -74.8% | –
COc1ccc([P+](CCCCOc2cc(O)c3c(=O)cc(-c4ccccc4)oc3c2)(c2ccc(OC)cc2)c2ccc(OC)cc2)cc1 [3c] | – | – | −82.70% | – | -72.9% | -67.5% | -73.8% | -66.9% | -63.5% | -77% | -74.3% | -34.8% | -93.9% | -75.5% | -78.9% | -62.7% | -90.6% | 2.18% | -51.1% | -74.4% | Growth percent (HOP-92): −79.86%
O=c1cc(-c2ccccc2)oc2cc(OCCCC[P+](c3ccc(F)cc3)(c3ccc(F)cc3)c3ccc(F)cc3)cc(O)c12 [3d] | −36.14% | −96.92% | – | −53.27% | -89% | -30.1% | -74% | -89.6% | -85.4% | -93% | -48.1% | -67.5% | -99.2% | -93.6% | -97.4% | -54.5% | -45.6% | -47.4% | -78% | -84% | –
